Measurements reported in publication PMC9415509, “Pro-Apoptotic Antitumoral Effect of Novel Acridine-Core Naphthoquinone Compounds against Oral Squamous Cell Carcinoma” (Molecules, 2022).
Several values for one entry are separate records, joined by “and”; a condition that tells them apart may be missing. Equal values may be shown once.

Assays:
SCC9 cells [1] = assay: SubG1 analysis (DNA fragmentation), flow cytometry; format: cell-based, human; conditions: SCC9, 72 h of treatment, PI staining
Experimental: Cell cycle and SubG1 analysis. To evaluate the action of compound 4e on the cell cycle and DNA fragmentation, cells of the SCC9 cell line were plated in a 6-well plate (5 × 10^5 cells/well). After 48 (cell cycle) or 72 h (DNA fragmentation) of treatment, the cells were trypsinized and stained with propidium iodide (75 µM) in the presence of NP-40. The DNA content was analyzed by collecting 10,000 events using a FACScalibur flow cytometer. The data were analyzed using CellQuest (BD Biosciences, Franklin Lakes, NJ, USA) and FlowJo (Tree Star Inc., Ashland, OR, USA) software as in [49].

SCC9 cells [2] = assay: Time-lapse video microscopy; format: cell-based, human; conditions: SCC9, 2 × IC50, 72 h time-lapse
Experimental: Video microscopy. […] For 72 h, phase-contrast images of the same field were captured every minute using a Hamamatsu C2400 CCD camera (Hamamatsu, Japan). The images of each experimental condition were integrated into videos using ImageJ software (National Institute of Health, Bethesda, MD, USA), and different times (indicated) were selected according to the morphological change observed during the treatment.

C57BL/6 female mice = assay: In vivo acute toxicity study; conditions: 14 days
Experimental: In vivo acute toxicity study. The acute toxicity study for compound 4e was performed in twelve-week-old C57BL/6 female mice via intraperitoneal injection and was approved by the University Animal Ethics Board under registration number 982. All experiments were performed in accordance with Brazilian guidelines and regulations. Dosing and analysis were performed according to 423 OECD guidelines and reviewed by. Each animal group had n = 3 or 4 (as indicated) and received only one intraperitoneal injection (Day 0) of compound 4e dissolved in […] PBS and 3% DMSO. The control group animals received only 3% DMSO in PBS. The first dose of the compound was 100 mg/kg. Subsequent dose levels (200 mg/kg and 400 mg/kg) were determined based on the result obtained from the previous dosing. The animals were examined every day, twice a day, for mortality and morbidity for 14 days, when all animals were anesthetized (ketamine 100 mg/kg and xylazine 10 mg/kg) followed by cervical dislocation. Gross necropsy and histology of the main organs were performed. The animals’ body weights and average food consumption were measured every 7 days. As an indication of morbidity, the following signs were assessed: tremors; convulsion; salivation; diarrhea; lethargy; coma; pain signs; increased rear arching; and mobility impairment. The necropsy included an examination of the external characteristics of the carcass; external body orifices; the abdominal, thoracic, and cranial cavities; organs/tissues of the liver, thymus, right kidney, […], heart, and lung. Major organs were analyzed by histopathology. For more details, see Supplementary Methods.

SCC9-LC3-GFP cells = assay: Autophagy assay (LC3-GFP puncta); format: cell-based, human; conditions: 4e 2 × IC50, 48 h; CPP 20% (v/v) 4–6 h
Experimental: Autophagy assay. To determine if compound 4e induces autophagy, SCC9 cells were stably transduced with LC3-GFP expressing plasmid. For the generation of SCC9 cell lines harboring LC3-GFP, HEK293FT cells were transfected with 3 µg of each helper plasmids (pMDLglpRRE, pHCMV g, and pRSVrev) and 8 µg of the pLV-CMV-SV40-Puro-GFP-LC3 using calcium phosphate and 25 µM chloroquine. Twenty-four hours later, a lentivirus-containing medium was harvested, supplemented with 8 µg/mL of Polybrene, and used to transduce SCC9 cells. Twenty-four hours later, the transduced cells were selected with 5 µg/mL of Puromycin for 7 days. The cells were then cultured with 2.5 µg/mL Puromycin for further experiments. The lentiviral construct encoding pLV-CMV-SV40-Puro-GFP-LC3 was a gift from Dr. SilvyaStuchi Maria Engler. […] As a positive control, calcium phosphate precipitates (CPP) were prepared by adding CaCl2 dropwise to Na2HPO4 (in Hepes, pH 7.05) as previously described. CPP 20% (v/v) was administrated to the cells 4–6 h before analysis.

Q: With CC1(C)CC(=O)C2=C(C1)NC1=C(C(=O)c3ccccc3C1=O)C2c1ccc(Cl)cc1Cl (stereo not drawn) [4e, 12-(2,4-dichlorophenyl)-3,3-dimethyl-3,4-dihydrobenzo[b]acridine-1,6,11(2H,5H,12H)-trione] as the compound, how does the “DNA fragmentation (Sub-G1 DNA-content), cells” value (SCC9 cells [1]) read?
A: The value was 25.5% and ~ 25%.

Q: What about the cell morphology (SCC9 cells [2]) of the same compound?
A: The cell morphology was “formation of membrane blebs at early times, between 16 and 48 h, followed by cells shrinkage”.

Q: What about the “Change in Body Weight” value (C57BL/6 female mice; 100 mg/kg single i.p. dose) of the same compound?
A: Its value is “Absent”.

Q: And the “Change in Food Consumption” value (C57BL/6 female mice; 100 mg/kg single i.p. dose)?
A: The value was “Absent”.

Q: What about the “Gross Necropsy” value (C57BL/6 female mice; 100 mg/kg single i.p. dose) of the same compound?
A: Its value is “No alteration”.

Q: And the Histology (C57BL/6 female mice; 100 mg/kg single i.p. dose)?
A: Its Histology is “No significant alteration in comparison to control”.

Q: What about the Morbidity (C57BL/6 female mice; 100 mg/kg single i.p. dose) of the same compound?
A: The Morbidity was “Absent”.

Q: What about the “Change in Body Weight” value (C57BL/6 female mice; 200 mg/kg single i.p. dose) of the same compound?
A: The value was “Absent”.

Q: And the “Change in Food Consumption” value (C57BL/6 female mice; 200 mg/kg single i.p. dose)?
A: The value was “Absent”.

Q: And the “Gross Necropsy” value (C57BL/6 female mice; 200 mg/kg single i.p. dose)?
A: The value was “No alteration”.

Q: What about the Histology (C57BL/6 female mice; 200 mg/kg single i.p. dose) of the same compound?
A: The Histology was “Presence of mild Perivascular and periportal lymphocyte focus and Bronchus-Associated Lymphoid Tissue (BALT)”.

Q: What about the Morbidity (C57BL/6 female mice; 200 mg/kg single i.p. dose) of the same compound?
A: Its Morbidity is “Absent”.

Q: What about the “Change in Body Weight” value (C57BL/6 female mice; 400 mg/kg single i.p. dose) of the same compound?
A: Its value is “Absent”.

Q: What about the “Change in Food Consumption” value (C57BL/6 female mice; 400 mg/kg single i.p. dose) of the same compound?
A: Its value is “Absent”.

Q: And the “Gross Necropsy” value (C57BL/6 female mice; 400 mg/kg single i.p. dose)?
A: The value was “No alteration”.

Q: What about the Histology (C57BL/6 female mice; 400 mg/kg single i.p. dose) of the same compound?
A: The Histology was “Presence of mild Perivascular and periportal lymphocyte focus and Bronchus-Associated Lymphoid Tissue (BALT)”.

Q: What about the Morbidity (C57BL/6 female mice; 400 mg/kg single i.p. dose) of the same compound?
A: Its Morbidity is “Absent”.

Q: And the “LC3-GFP puncta formation (autophagy)” value (SCC9-LC3-GFP cells)?
A: The value was “neither DMSO nor 4e were able to induce this cell death process”.
